Patent US8349889B2, “Skin-care preparations containing mupirocin and betamethasone dipropionate” (Laboratorios Dermatologicos Darier, S.A. DE C.V., priority 2005, dated 2013)
Several values for one entry are separate records, joined by “and”; a condition that tells them apart may be missing. Identical values can stand only once.

Legend:
[1] = Incompatibility tests, active evaluation immediately after preparation; format: physicochemical; parameters: unit not given here; conditions: for Active evaluation, Test 1: actives + PEG 40 hydrogenated castor oil, analysed immediately after preparation; for Active evaluation, Test 2: as Test 1 + butyl hydroxy toluene; for Active evaluation, Test 3: as Test 2 + propyl paraben; for Active evaluation, Test 4: as Test 3 + methyl paraben; for Active evaluation, Test 5: as Test 4 + glycerin; for Active evaluation, Test 6: as Test 5 + mineral oil; for Active evaluation, Test 7: as Test 6 + white petrolatum
Protocol: In order to test the possible incompatibility of mupirocin with one of the excipients the following tests reported in Table No. 4 were performed and the results are the following: [table]

[2] = Active evaluation (USP23 NF/21) of polyethylene glycol based formula, three samples; format: physicochemical; conditions: formula with PEG 40 hydrogenated castor oil, polyethylene glycol 600, PEG 150 distearate, methyl paraben; Samples 1-3; specification 90.0 to 110.0%
Protocol: Taking the experience that mupirocin and betamethasone dipropionate are soluble at 60° C. in PEG 40 hydrogenated castor oil and in polyethylene glycol 600 (according to Table No. 2), a formulation having the following ingredients is proposed: mupirocin and betamethasone dipropionate (active ingredients), PEG 40 hydrogenated castor oil (cosolvent), polyethylene glycol 600 (balance excipient or carrier), PEG 150 distearate (thickener) and methyl paraben (preservative). The manufacturing process was the following: In an appropriate size vessel the polyethylene glycol 600 and PEG 40 hydrogenated castor oil were placed, this mixture was heated up to a temperature of 70° C. and then the methyl paraben, mupirocin and betamethasone dipropionate were dissolved; once all the above ingredients were dissolved, the temperature was lowered with constant mixing until reaching 60° C.; it was then added the PEG 150 distearate and continued mixing until the mixture was homogenous; the final product was obtained after lowering the temperature with constant mixing until reaching ambient temperature.
(§1) Once the product was obtained three samples were analyzed, collected from different parts of the vessel containing the product, by Active Evaluation techniques reported for each of them in the individual monographs included in USP23 NF/21.

[3] = Active evaluation (USP23 NF/21) of white petrolatum ointment base formula, three samples; format: physicochemical; conditions: Samples 1-3 from different parts of the vessel, specification 90.0 to 110.0%
Protocol: As for the ointment base determination, an ointment base having the following components was tested: white petrolatum (carrier), NF 85 mineral oil (texture and appearance modifier), PEG 40 hydrogenated castor oil (solvent), glycerin (moistener), butyl hydroxy toluene (antioxidant), methyl paraben and propyl paraben (preservatives), mupirocin and betamethasone dipropionate (active ingredients). The manufacture process was the following: In an appropriate size vessel the white petrolatum, mineral oil and glycerin were placed, this mixture was heated up to a temperature of 75° C. and then the butyl hydroxy toluene with the parabens was dissolved; separately in other suitable size vessel the PEG 40 hydrogenated castor oil was placed, heated up to a 60° C. temperature and mupirocin and betamethasone dipropionate were solved therein; when both mixtures were at 60° C. they were mixed and the final product was obtained after lowering the temperature with constant mixing until reaching ambient temperature.
as §1

[4] = Simple incorporation of the active in white petrolatum at 60° C.; format: physicochemical; conditions: incorporated in white petrolatum at 60° C.; cream color gummy hard precipitate forms
Protocol: According to the results it can be concluded that mupirocin in the presence of white petrolatum undergoes a possible chemical degrading. It then followed a simple incorporation of the active in the white petrolatum at a temperature of 60° C. and it was seen that immediately a cream color precipitate forms having a gummy appearance and hard. […] Therefore, this ointment base with mupirocin is discarded.

Bactericide action tests = conditions: at the concentrations obtained in a 2% topical formulation

| SMILES | Active evaluation, Test 1 [1] | Active evaluation, Test 2 [1] | Active evaluation, Test 3 [1] | Active evaluation, Test 4 [1] | Active evaluation, Test 5 [1] | Active evaluation, Test 6 [1] | Active evaluation, Test 7 [1] | Evaluation Results [2] | Evaluation Results [3] | Compatibility with white petrolatum [4] | bactericide action (Bactericide action tests) |
| --- | --- | --- | --- | --- | --- | --- | --- | --- | --- | --- | --- |
| CCC(=O)OCC(=O)[C@@]1(OC(=O)CC)[C@@H](C)C[C@H]2[C@@H]3CCC4=CC(=O)C=C[C@]4(C)[C@@]3(F)[C@@H](O)C[C@@]21C [Betamethasone dipropionate] | 100.2 | 100.3 | 100.2 | 99.8 | 100.2 | 100.4 | 99.3 | 99.8% and 100.3% and 100.1% | 100.6% and 100.2% |  |  |
| C/C(=C\C(=O)OCCCCCCCCC(=O)O)C[C@@H]1OC[C@H](C[C@@H]2O[C@H]2[C@@H](C)[C@H](C)O)[C@@H](O)[C@H]1O [Mupirocin] | 98.8 | 99.3 | 98.7 | 98.9 | 99.0 | 98.8 | 69.8 | 98.7% and 99.1% and 99.4% | 70.5% and 71.2% and 70.7% | incompatible with white petrolatum | has bactericide action |
